# From patent US20240050582A1, “CONJUGATES INCLUDING MULTIPLE SACCHARIDIC CHAINS ON A LINEAR PROTEIN AND USES IN MAMMALS FEED” (UNIVERSITEIT GENT, priority 2021, published 2024)
# Where two headings read alike, the source gives them in different places. Marks after values point to notes of the source that are not given here.
# Assays:
# [1] = system: F18ac bacteria 2134P (STa+ STb+); assay: In vivo small intestinal segment perfusion model (SISP); design: species or system pig
# F18 E. coli [2] = assay type: in vivo, pig; conditions: compared with positive control; P<0.05
# F18 E. coli [3] = assay: Part E: intestinal morphology; conditions: linear
# [4] = system: F18+ E. coli (strain 107/86); conditions: for Conjugate inhibition (M) / M − C (measure of the specific blockage of F18 fimbriae by A6) / Optimal inhibitory dose: A6 supplied via the conjugate / Optimal inhibitory dose: Carrier supplied via the conjugate: Table 9; for Conjugate inhibition (M): A6-1 conjugate of the carrier, at its optimal inhibitory dose; for M − C (measure of the specific blockage of F18 fimbriae by A6): difference conjugate inhibition minus carrier inhibition; for Optimal inhibitory dose: A6 supplied via the conjugate / Optimal inhibitory dose: Carrier supplied via the conjugate: in vitro; for Average % inhibition: free A6-1 10 mg/ml (positive control)
# β-hemolytic coliforms = assay type: in vivo, pig; conditions: AGP (50 mg/kg carbadox)
# F18 E. coli [5] = assay: Part E: bacterial translocation in lymph nodes and spleen; conditions: AGP
# F18+ E. coli = assay: Blocking assay with fluorescein conjugated A6-1 monomers; assay type: binding, Escherichia coli; conditions: pre-incubation 1 h; actual A6-1 12 μg/ml (CMCL, CMCM), 120 μg/ml (polylysine); monomeric A6-1 1 mg/ml
# Method: A blocking assay was developed to understand inhibition. In this assay, F18+E. coli were first incubated for one hour at room temperature with either the carriers or A6-1 conjugates, while gently shaking. Concentrations used were chosen so that the actual A6-1 concentration was 12 μg/ml for A6-1 conjugated carriers CMCM and CMCL (and the similar concentration of non-conjugated carriers) or 120 μg/ml for the A6-1 conjugated carrier polylysine (A6-1-PL-14). […] Subsequently, fluorescein conjugated A6-1 monomers (A6-F) were added (1 mg/ml) for one hour at room temperature. The fluorescing oligosaccharide was labeled at the reducing end of the molecule with fluorescein (also named 6A1-FITC). Next free A6-1-fluorescein was washed away with PBS followed by centrifugation at 2000 g for 5 min and resuspensions of the pellet with PBS. This was repeated twice.
# If carriers without A6-1 bind to the bacteria, they will block the binding of A6-F and no fluorescence-bound bacteria can be detected by fluorescence microscopy. If there is no binding of the carrier to the bacteria in the first step of the test, fluorescing bacteria will be seen. […]
# As aforementioned, high non-AG based inhibition of most carriers was observed. […] Subsequently, fluorescence conjugated AG-1 monomers (AG-1-F) were added and binding of the fluorescing AG-1 to the bacteria was determined using a fluorescence microscope.
# [6] = d 5 PI, compared with the control, P<0.05
compound,measurement,setting,value
CNCCCCC(CNCCCCC(N)C(=O)NCCCCC(N)C(C)=O)NCC(O)C(O)C(O[C@@H]1OC(CO)[C@H](O)C(O[C@@H]2OC(CO)[C@@H](O)C(O[C@@H]3OC(CO)[C@H](O)C(O[C@H]4OC(CO)[C@H](O)C(O)C4NC(C)=O)C3O[C@@H]3OC(C)[C@@H](O)C(O)C3O)C2NC(C)=O)C1O)C(O)CO (stereo partly drawn) [Coligo A6PL],net absorption of perfusion fluid,"[1]; 2 μg/ml actual A6-1 (A6-1-PL-14), segment number 4",+0.03 g/cm^2
same,net absorption of perfusion fluid,"[1]; 8 μg/ml actual A6-1 (A6-1-PL-14), segment number 5",+0.21 g/cm^2
same,net absorption of perfusion fluid,[1]; 32 μg/ml actual A6-1 (number 6) or the same concentration of polylysine (number 8),0 g/cm^2
same,feed efficiency from d 0 to 5 PI,F18 E. coli [2],enhanced
same,ratio of villi height to crypt depth in jejunum,F18 E. coli [3]; [6],enhanced
same,"villi height, ratio of villi height to crypt depth, and villi area in ileum",F18 E. coli [3]; [6],increased
same,"villi height, ratio of villi height to crypt depth, villi width, and villi area in duodenum",F18 E. coli [3]; [6],dose-dependently increased
same,ratio of villi height to crypt depth in jejunum and ileal villi height,"F18 E. coli [3]; d 11 PI, P<0.10",tended to increase
Alginate [reference compound],Conjugate inhibition (M),[4],41%
same,M − C (measure of the specific blockage of F18 fimbriae by A6),[4],−15%
same,Optimal inhibitory dose: A6 supplied via the conjugate,[4],0.6 µg/mL
same,Optimal inhibitory dose: Carrier supplied via the conjugate,[4],0.081 mg/mL
"COC(=O)N/N=C/c1c[n+]([O-])c2ccccc2[n+]1[O-] [AGP, carbadox]",percentage of β-hemolytic coliform,β-hemolytic coliforms; d 2 PI,31.56^b %
same,percentage of β-hemolytic coliform,β-hemolytic coliforms; d 5 PI,8.79^b %
same,percentage of β-hemolytic coliform,β-hemolytic coliforms; d 8 PI,2.77^b %
same,percentage of β-hemolytic coliform,β-hemolytic coliforms; d 11 PI,2.10%
same,"Bacterial translocation, Lymph node",F18 E. coli [5]; d 5 PI,147^ab cfu/g
same,"Bacterial translocation, Spleen",F18 E. coli [5]; d 5 PI,47 cfu/g
same,"Bacterial translocation, Lymph node",F18 E. coli [5]; d 11 PI,279^ab cfu/g
same,"Bacterial translocation, Spleen",F18 E. coli [5]; d 11 PI,56^b cfu/g
"CC(=O)N[C@H]1[C@@H](O[C@H]2[C@@H](O)[C@@H](CO)O[C@@H](O[C@H]3[C@H](O)[C@@H](CO)O[C@@H](O[C@H]4[C@@H](O)[C@@H](CO)O[C@@H](O[C@H]5[C@H](O)[C@@H](O)C(O)O[C@@H]5CO)[C@@H]4O)[C@@H]3NC(C)=O)[C@@H]2O[C@@H]2O[C@@H](C)[C@@H](O)[C@@H](O)[C@@H]2O)O[C@H](CO)[C@H](O)[C@@H]1O (stereo partly drawn) [A6-1, GalNAcα1-3(Fucα1-2)Galβ1-3GlcNAcβ1-3Galβ1-4Glc, reference compound]",Average % inhibition,[4]; Table 8-A,71.3%
same,Average % inhibition,[4]; Table 8-B CMCL type 1,69.5%
same,Average % inhibition,[4]; Table 8-B CMCL type 2,57.05%
same,Average % inhibition,[4]; Table 8-C CMCM type 1,63.6%
same,Average % inhibition,[4]; Table 8-C CMCM type 2,61.26%
same,fluorescence of bacteria after A6-1-fluorescein (blocking of A6-F binding),F18+ E. coli,completely abolished fluorescence
Pectin [reference compound],Conjugate inhibition (M),[4],64%
same,M − C (measure of the specific blockage of F18 fimbriae by A6),[4],−5%
same,Optimal inhibitory dose: A6 supplied via the conjugate,[4],1.2 µg/mL
same,Optimal inhibitory dose: Carrier supplied via the conjugate,[4],0.25 mg/mL
